Experiments:
[1] = molecular target: T1, angiotensin converting enzyme (Rattus norvegicus, UniProt P47820); assay: In vivo test for inhibition of angiotensin converting enzyme: pressor responses to angiotensin I and II in anaesthetised rats
T1 construct: were each tested in anaesthetised rats; from tissue; host or cells: whole animal (anaesthetised rat)
T1 sequence (P47820 36-1313): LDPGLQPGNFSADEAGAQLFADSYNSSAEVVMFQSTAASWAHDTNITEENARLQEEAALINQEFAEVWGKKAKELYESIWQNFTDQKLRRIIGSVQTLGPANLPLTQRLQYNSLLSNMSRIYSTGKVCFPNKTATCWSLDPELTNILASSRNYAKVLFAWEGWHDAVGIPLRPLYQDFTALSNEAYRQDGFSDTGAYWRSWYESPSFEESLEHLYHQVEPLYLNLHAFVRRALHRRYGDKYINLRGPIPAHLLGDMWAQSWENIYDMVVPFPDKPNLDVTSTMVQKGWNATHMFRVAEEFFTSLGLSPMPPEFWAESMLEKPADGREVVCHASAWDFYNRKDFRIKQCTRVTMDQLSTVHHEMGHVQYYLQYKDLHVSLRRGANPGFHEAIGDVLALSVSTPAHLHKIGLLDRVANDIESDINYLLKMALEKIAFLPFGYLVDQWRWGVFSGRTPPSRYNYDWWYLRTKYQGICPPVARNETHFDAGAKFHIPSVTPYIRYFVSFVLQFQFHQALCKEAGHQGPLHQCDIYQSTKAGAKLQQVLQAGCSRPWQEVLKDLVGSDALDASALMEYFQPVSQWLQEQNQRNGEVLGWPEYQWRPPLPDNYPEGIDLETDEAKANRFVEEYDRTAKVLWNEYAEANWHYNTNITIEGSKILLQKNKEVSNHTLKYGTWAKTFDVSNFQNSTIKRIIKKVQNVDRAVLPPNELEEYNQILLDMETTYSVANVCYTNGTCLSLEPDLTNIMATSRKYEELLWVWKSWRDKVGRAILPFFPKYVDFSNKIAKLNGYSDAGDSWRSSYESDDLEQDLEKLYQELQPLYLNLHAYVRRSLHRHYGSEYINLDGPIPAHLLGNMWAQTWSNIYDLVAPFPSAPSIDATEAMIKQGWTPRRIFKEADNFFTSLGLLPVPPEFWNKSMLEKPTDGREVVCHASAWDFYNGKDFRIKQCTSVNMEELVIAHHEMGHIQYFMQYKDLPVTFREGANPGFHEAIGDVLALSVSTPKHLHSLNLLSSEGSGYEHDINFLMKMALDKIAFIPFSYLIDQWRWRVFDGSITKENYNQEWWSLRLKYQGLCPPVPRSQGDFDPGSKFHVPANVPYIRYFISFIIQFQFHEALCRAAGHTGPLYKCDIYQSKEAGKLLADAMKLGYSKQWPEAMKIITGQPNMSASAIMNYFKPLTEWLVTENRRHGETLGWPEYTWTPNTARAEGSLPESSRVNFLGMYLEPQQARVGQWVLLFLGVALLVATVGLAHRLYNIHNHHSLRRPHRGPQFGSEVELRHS
Protocol: 2. In vivo test for inhibition of angiotensin converting enzyme.
The compounds of examples 1,2,4 & 5 were each tested in anaesthetised rats for their ability to reduce the pressor responses to angiotensin I, but not those to angiotensin II. The dose of angiotensin I was 300 n.g/kg (i.v) and the dose of angiotensin II was 100 ng/kg (i.v).
The results given are the mean of those obtained from the given number of rats.
'I' is the increase in diastolic blood pressure (mm Hg) to angiotensin I (control reponse).
'%R' is the percentage reduction in control angiotensin I response after the intervals (min) from dosage.

[2] = molecular target: T2, rat lung angiotensin converting enzyme preparation (Rattus norvegicus, UniProt P47820); assay: In vitro test for inhibition of angiotensin converting enzyme; format: biochemical; details: mean of 3 experiments; read-out: 50% inhibitior. (IC50) of rat lung angiotensin converting enzyme preparation
T2 construct: rat lung angiotensin converting enzyme preparation; from tissue; host or cells: rat lung
T2 sequence (P47820 36-1313): T1 sequence (P47820 36-1313)
Text: 1. In vitro test for inhibition of angiotensin converting enzyme

[3] = system: Spontaneously hypertensive rats; assay: Antihypertensive activity in spontaneously hypertensive rats (tail cuff method); format: in vivo
Protocol: 3. Antihypertensive Activity
Each determination of blood pressure was the mean of at least 6 readings. Spontaneously hypertensive rats (ages 12-18 weeks) with systolic blood pressures 170 mmH:g were considered hypertensive.
The initial blood pressure and heart rats were determined and recorded together with the % changes occuring at intervals thereafter: […]

[4] = 0.03 mg/kg i.v, 5 min from dosage
[5] = 0.03 mg/kg i.v, 10 min from dosage
[6] = 0.03 mg/kg i.v, 15 min from dosage
[7] = 0.10 mg/kg i.v, 5 min from dosage
[8] = 0.10 mg/kg i.v, 10 min from dosage
[9] = 0.10 mg/kg i.v, 15 min from dosage
[10] = 0.10 mg/kg i.v, 25 min from dosage
[11] = 0.10 mg/kg i.v, 30 min from dosage
[12] = 0.10 mg/kg i.v, 40 min from dosage
[13] = 0.10 mg/kg i.v, 45 min from dosage
[14] = 0.10 mg/kg i.v, 50 min from dosage
[15] = 0.30 mg/kg i.v, 5 min from dosage
[16] = 0.30 mg/kg i.v, 10 min from dosage
[17] = 0.30 mg/kg i.v, 15 min from dosage
[18] = 0.30 mg/kg i.v, 25 min from dosage
[19] = 0.30 mg/kg i.v, 30 min from dosage
[20] = 0.30 mg/kg i.v, 40 min from dosage
[21] = 0.30 mg/kg i.v, 45 min from dosage
[22] = 0.30 mg/kg i.v, 50 min from dosage
[23] = 10 mg/kg p.o., 1 hour post dose
[24] = 10 mg/kg p.o., 4 hours post dose
[25] = 10 mg/kg p.o., 6 hours post dose
[26] = 10 mg/kg p.o., 24 hours post dose
[27] = 30 mg/kg p.o., 1 hour post dose
[28] = 30 mg/kg p.o., 2 hours post dose
[29] = 30 mg/kg p.o., 4 hours post dose
[30] = 30 mg/kg p.o., 6 hours post dose
[31] = 30 mg/kg p.o., 24 hours post dose

| Substance | %R percentage reduction in control angiotensin I response [1, 4] | %R percentage reduction in control angiotensin I response [1, 5] | %R percentage reduction in control angiotensin I response [1, 6] | %R percentage reduction in control angiotensin I response [1, 7] | %R percentage reduction in control angiotensin I response [1, 8] | %R percentage reduction in control angiotensin I response [1, 9] | %R percentage reduction in control angiotensin I response [1, 10] | %R percentage reduction in control angiotensin I response [1, 11] | %R percentage reduction in control angiotensin I response [1, 12] | %R percentage reduction in control angiotensin I response [1, 13] | %R percentage reduction in control angiotensin I response [1, 14] | %R percentage reduction in control angiotensin I response [1, 15] | %R percentage reduction in control angiotensin I response [1, 16] | %R percentage reduction in control angiotensin I response [1, 17] | %R percentage reduction in control angiotensin I response [1, 18] | %R percentage reduction in control angiotensin I response [1, 19] | %R percentage reduction in control angiotensin I response [1, 20] | %R percentage reduction in control angiotensin I response [1, 21] | %R percentage reduction in control angiotensin I response [1, 22] | further results |
| --- | --- | --- | --- | --- | --- | --- | --- | --- | --- | --- | --- | --- | --- | --- | --- | --- | --- | --- | --- | --- |
| N-(1-Carboxypropyl)-(S)-alanyl-4α-benzyloxy-(S)-proline [Example 1] | 39% | 29% | 6% | 60% | 64% | 57% | 41% | 38% | 36% | 32% | 24% | 86% | 80% | 77% | 76% | 77% | 73% | 72% | 74% | IC50 [2]: 3.3 nM |
| N-(1-carbethoxy-3-phenylpropyl)-(S)-alanyl-4α-benzyloxy-(S)-proline [Example 2] | 23% | 25% | 19% | 67% | 66% | 61% | 53% | 42% | 47% | 39% | 29% | 82% | 81% | 80% | 69% | 67% | 69% | 65% | 60% | %R percentage reduction in control angiotensin I response ([1]; 0.03 mg/kg i.v, 25 min from dosage): 12%; % change in heart rate [3, 23]: -7 ± 3%; % change in systolic blood pressure [3, 23]: -5± 3%; % change in systolic blood pressure ([3]; 10 mg/kg p.o., 2 hours post dose): -10± 3%; % change in heart rate [3, 24]: -5 ± 4%; % change in systolic blood pressure [3, 24]: -22± 3%; % change in heart rate [3, 25]: 1 ± 4%; % change in systolic blood pressure [3, 25]: -22± 4%; % change in heart rate [3, 26]: -4 ± 3%; % change in systolic blood pressure [3, 26]: -7± 4% |
| N-[2-(2,3-dihydro-2-benzofuranyl)-l-(ethoxycarbonyl) -ethyl)-(S)-alanyl -4α-benzyloxy-(S)-nroline [Example 4] |  |  |  | 34% | 29% | 25% | 15% | 14% | 16% | 14% |  |  |  |  |  |  |  |  |  |  |
| N-[4-(2,3-dihydro-2-benzofuranyl)-l-(ethoxycar-α bonyl)-butyl]-(S)-alanyl-4αbenzyloxy-(S)-proline [Example 5] |  |  |  | 61% | 58% | 52% | 47% | 44% | 39% |  | 18% |  |  |  |  |  |  |  |  | % change in heart rate [3, 27]: -2 ± 2%; % change in systolic blood pressure [3, 27]: -10± 3%; % change in heart rate [3, 28]: 0 ± 4%; % change in systolic blood pressure [3, 28]: -7± 2%; % change in heart rate [3, 29]: +5 ± 3%; % change in systolic blood pressure [3, 29]: -23± 1%; % change in heart rate [3, 30]: 0 ± 3%; % change in systolic blood pressure [3, 30]: -17± 1%; % change in heart rate [3, 31]: +9 ± 5%; % change in systolic blood pressure [3, 31]: +1± 3% |

Reference: EP0080822A1, “Anti-hypertensive prolinol-based peptides” (BEECHAM GROUP PLC, priority 1981, dated 1983)
